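Assay format: 96-well plates, 48-hour exposure. Definition used: TGI = concentration required for complete inhibition of growth.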 Where a SMILES comes first, the peptide text is derived from it. The star is where a group is joined. Cbz = O=C(OCc1ccccc1)*; Boc = CC(C)(C)OC(=O)*; OBn = c1ccc(CO*)cc1
Tests used:
Test in all cases: inhibition of tumour cell growth, NCI panel, 48 h
HCT-116 colon = test system: HCT-116 colon
CAKI-1 renal = test system: CAKI-1 renal
A498 renal = test system: A498 renal
U251 CNS = test system: U251 CNS
NCI-H226 lung = test system: NCI-H226 lung
OVCAR-4 ovarian = test system: OVCAR-4 ovarian
LOX IMVI melanoma = test system: LOX IMVI melanoma
SK-MEL-28 melanoma = test system: SK-MEL-28 melanoma
PC-3 prostate = test system: PC-3 prostate
T-47D breast = test system: T-47D breast
OVCAR-3 ovarian = test system: OVCAR-3 ovarian
MCF7 breast = test system: MCF7 breast
SNB-19 CNS = test system: SNB-19 CNS
NCI/ADR-RES ovarian = test system: NCI/ADR-RES ovarian
CCRF-CEM leukemia = test system: CCRF-CEM leukemia
UACC-257 melanoma = test system: UACC-257 melanoma

Row | SMILES | TGI (HCT-116 colon) [µM] | TGI (CAKI-1 renal) [µM] | TGI (A498 renal) [µM] | TGI (U251 CNS) [µM] | TGI (NCI-H226 lung) [µM] | TGI (OVCAR-4 ovarian) [µM] | TGI (LOX IMVI melanoma) [µM] | TGI (SK-MEL-28 melanoma) [µM] | TGI (PC-3 prostate) [µM] | TGI (T-47D breast) [µM] | TGI (OVCAR-3 ovarian) [µM] | TGI (MCF7 breast) [µM] | TGI (SNB-19 CNS) [µM] | TGI (NCI/ADR-RES ovarian) [µM] | TGI (CCRF-CEM leukemia) [µM] | TGI (UACC-257 melanoma) [µM]
1 | COC(=O)C(CCCCNC(=O)OCc1ccccc1)NC(=O)C(CCC(=O)OCc1ccccc1)NC(=O)OC(C)(C)C (configuration not stated) (Boc-Glu(OBn)-Lys(Cbz)-OMe; configuration not given here) | > 100 | > 100 | 66.5 | > 100 | > 100 | > 100 | > 100 | > 100 | > 100 | > 100 | > 100 | > 100 | > 100 | > 100 |  | 
2 | COC(=O)C1(Cc2ccccc2C)Cc2ccc(C)cc2C1=O (configuration not stated) | > 100 | > 100 | > 100 | > 100 | > 100 | > 100 | 45.9 | > 100 | 92.6 | > 100 | > 100 | 41 | > 100 | 65.6 | > 100 | > 100
3 | CCOC(=O)/C(C#N)=N\Nc1ccc(-n2c(C)nc3ccc(Br)cc3c2=O)cc1 | > 100 | > 100 | > 100 | > 100 | > 100 |  | > 100 | > 100 | > 100 | > 100 | > 100 | > 100 | > 100 | > 100 | > 100 | > 100
4 | COC(=O)/C=C(\S/C(=C(/c1ccccc1)n1cc(C(=O)OC)c(C(=O)OC)n1)c1ccccc1)C(=O)OC | 37.1 | 6.66 | > 100 | 66.1 | > 100 | 29 | 21.4 | 60.4 | 32.2 | 14.1 | 8.29 | 22.9 | 40 | 89.1 | 31.3 | 23.9
5 | O=[N+]([O-])c1ccc2nc(/C=C(\O)c3ccccc3)c(/C=C(\O)c3ccc(Cl)cc3)nc2c1 | > 100 | > 100 | > 100 | > 100 | > 100 | > 100 |  |  | > 100 | > 100 | > 100 | > 100 | > 100 | > 100 | > 100 | > 100
6 | O=c1[nH]nc(Cc2ccc(Cl)cc2)n1Nc1ccccc1 | > 100 | > 100 | > 100 | > 100 | > 100 | > 100 | > 100 | > 100 | > 100 | > 100 | > 100 | > 100 | > 100 | > 100 | > 100 | > 100
7 | COc1cc(O)c2c(=O)cc(C3(OC(C)=O)C=CC(OC4OC(CO)C(O)C(O)C4O)C=C3)oc2c1 (configuration not stated) | > 100 | > 100 | > 100 | > 100 | > 100 | > 100 | > 100 | > 100 | > 100 | > 100 | > 100 | > 100 | > 100 | > 100 | > 100 | > 100
8 | CC(=O)Nc1ccc2c(c1)C(=Nc1ccc(C(=O)O)cc1)c1ccccc1-2 | > 100 | > 100 | > 100 | > 100 | 87.1 | > 100 | > 100 | > 100 | > 100 | > 100 | > 100 | > 100 | > 100 | > 100 | > 100 | > 100
9 | CCCN=C1S/C(=C/c2ccc(OC)c(OC)c2)C(=O)N1c1ccccc1 | > 100 | > 100 | 58.2 | 38.7 | 95 | 80.6 | > 100 | > 100 | > 100 | > 100 | 43.3 | > 100 | 63.4 | > 100 | > 100 | > 100
10 | CC1=NN(c2ccccc2Cl)C2(C1)SCC(=O)N2c1nc2ccccc2s1 (configuration not stated) | > 100 | > 100 | > 100 | > 100 | > 100 | > 100 | > 100 | > 100 | > 100 | > 100 | > 100 | > 100 | > 100 | > 100 |  | > 100
11 | c1ncc(C23C4C5C6C4C2C6C53)[nH]1 (configuration not stated) | > 100 | > 100 | > 100 | > 100 | > 100 | > 100 | > 100 | > 100 | > 100 | > 100 | > 100 | > 100 | > 100 | > 100 | > 100 | > 100
12 | COC(=O)C(NC(=O)C12CCC(C)(C(=O)O1)C2(C)C)c1cc(C(C)(C)C)c(O)c(C(C)(C)C)c1 (configuration not stated) | > 100 | > 100 | > 100 | > 100 | > 100 | > 100 | > 100 | > 100 | > 100 | > 100 | > 100 | > 100 | > 100 | > 100 | > 100 | 
13 | O=C1NC(c2ccccc2)C1N(Cc1ccccc1)Cc1ccccc1 (configuration not stated) | > 100 | > 100 | > 100 | > 100 | > 100 | > 100 | > 100 | > 100 | > 100 | > 100 | > 100 | > 100 | > 100 | > 100 | > 100 | > 100
14 | CSc1nc2ccccc2c(=O)n1-c1cccc(C)c1 | > 100 | > 100 | 92 | > 100 | > 100 | > 100 | > 100 | > 100 | > 100 | > 100 | > 100 | > 100 | > 100 | > 100 | > 100 | > 100
15 | COC(=O)c1c(OC(C)=O)ccc2c1c1c(n2Cc2ccccc2)C(=O)c2ccccc2C1=O | 34.2 | 51.2 | 43.6 | 42.4 | 49.3 | 74.2 |  | 41.2 | 59.8 | 56.3 | 36.3 | > 100 | 97.1 | 61.6 | 68.6 | 26.8
16 | NC(N)=NCCCS(=O)(=O)Nc1ccc(Nc2c3ccccc3nc3cc([N+](=O)[O-])ccc23)cc1 | 63.5 | > 93.5 | 65.8 | 29.5 | 45.5 | 48.9 | > 75.7 | 40.7 | 67.9 | 11.4 | 66.4 | 87.7 | 28.8 | 58.8 | > 74.9 | 68.1
17 | COc1ccc(N=C/C=C/C(=C/COC(C)=O)OC(C)=O)cc1 | 28.7 | 63.8 | 62.9 | 72.3 | > 100 | 93.8 | > 100 | 65.9 | > 100 | > 100 | > 100 | > 100 | > 100 | > 100 | > 100 | 87.2
18 | COC(=O)C1CCCCCCCCCCC12SCCCS2 (configuration not stated) | 30.2 | 96.3 | 49.7 | 32.1 | 42.8 | 38.7 | 35.4 | 36.1 | 50 | > 100 | 41 | > 100 | 83.2 | 43.1 | 51.1 | 40.2
19 | CC(=O)Nc1ccccc1S(=O)(=O)c1c(-c2c(C)c(Cl)c(C)c(Cl)c2C)noc1C | > 100 | 79.3 | > 100 | 95.5 | 78.8 | 35.6 |  | > 100 | > 100 | > 100 | > 100 | > 100 | 64.5 | > 100 | 71.2 | > 100
20 | COC(=O)[C@H]1[C@H](OC(=O)[C@@H](OC)c2ccccc2)ON2CC[C@@H](OC(=O)c3ccccc3)[C@H]12 | > 100 | > 100 | 23.1 | > 100 | > 100 | > 100 | > 100 | > 100 | > 100 | > 100 |  | 22 | > 100 | > 100 | > 100 | > 100
21 | N#CCCN(CCC#N)c1ccc(/C=C2\N=C(c3ccccc3)N(NC(=O)c3ccncc3)C2=O)cc1 | > 100 |  | > 100 | > 100 | > 100 | > 100 | > 100 | > 100 | > 100 | > 100 | > 100 | > 100 | > 100 | > 100 |  | > 100
22 | CC(=O)/C(=C\n1c(=S)[nH]c2ccc([N+](=O)[O-])cc21)C(=O)Nc1ccccc1C | > 100 | > 100 | > 100 | > 100 | > 100 | > 100 | > 100 | > 100 | > 100 | > 100 | > 100 | > 100 |  | > 100 | > 100 | > 100
23 | CN(N=O)C(N)=NC(=O)c1ccccc1 | > 100 | > 100 | > 100 | > 100 | > 100 | > 100 | > 100 |  | > 100 | > 100 | > 100 | > 100 | > 100 | > 100 | > 100 | > 100
24 | N#Cc1c(-c2ccccc2)cc(Nc2ccc(F)cc2)n2c1nc1ccccc12 | 6.06 | > 100 | 12 | 8.11 | > 24 | > 100 | > 30.4 | > 100 | 4.97 | 19 | 19.3 | 5.97 | > 100 | 13 |  | 8.78
25 | N/C(=N/O)c1cn(C2OC(CO)C(O)C2O)c2ncnc(NO)c12 (configuration not stated) | > 77.4 |  | 3.01 | 54.1 | 17.4 | 5.98 | 4.53 | > 51.3 | 3.17 | > 35.3 |  | 23.2 | > 100 | 7.19 |  | 4.4
26 | O=C(N/N=C1\CCc2ccccc21)N/N=C1\CCc2ccccc21 | > 100 | > 100 | > 100 | > 100 | > 100 |  | > 100 | > 100 | > 100 | > 100 | > 100 | > 100 | > 100 | > 100 | > 100 | > 100
27 | [N-]=[N+]=NC1=C(N=[N+]=[N-])c2cccc3cccc(c23)C1=O | > 100 | > 100 | > 100 | > 100 | > 100 | > 100 | > 100 |  | > 100 | > 100 | > 100 | > 100 | > 100 | > 100 | > 100 | > 100
28 | COc1ccc([N+](=O)[O-])cc1[I+]c1cc([N+](=O)[O-])ccc1OC | > 100 | > 100 | > 100 | 34.2 | > 100 |  | 73.1 | 21.8 | > 100 | > 100 | > 100 | > 100 | > 100 | > 100 | > 100 | > 100
29 | O=C(CN1c2ccccc2Sc2ccccc21)n1cnc2ccccc21 | > 100 |  | > 100 | > 100 | > 100 | > 100 | > 100 | > 100 | > 100 | > 100 | > 100 | > 100 | > 100 | > 100 | > 100 | > 100
